# Patent publication US20090035298A1 (priority 2007, published 2009)
# “And” between values parts separate entries of the source, which are not always exact repeats. Identical values can stand only once. Like-named read-outs stand apart in the source and are kept apart here. Where no end group is shown, it is not given here.
# How the values were obtained:
# [1] = test system: neuronal activity in the hippocampus; design: species or system Tg2576 mice; conditions: mouse, in vivo
# [2] = test system: hippocampal ISF Aβ levels; assay type: in vivo, Tg2576 mice; conditions: for Effect on ISF Aβ levels versus vehicle treated mice: 50 mg/kg intraperitoneal, n=8 per group; for Effect on ISF Aβ levels versus vehicle treated mice / ISF Aβ levels, % of baseline by 12 hours: 3-4 month old Tg2576 mice; for ISF Aβ levels, % of baseline by 12 hours: n=5
compound,measurement,setting,value
"NC1=N[C@H](O)[C@H]2[C@H]3O[C@]4(O)O[C@@H]([C@@H](O)[C@@]2(N1)[C@@H]4O)[C@]3(O)CO [TTX, Tetrodotoxin]",Effect on neuronal activity in the hippocampus,[1],almost completely blocked
same,"Change in ISF Aβ levels on 3 hours restraint stress given 8 hours after TTX treatment, compared to TTX-alone controls","[2]; mouse, in vivo",no significant change
same,Decrease of ISF Aβ levels over 16 hours compared to baseline,"[2]; mouse, in vivo",~60%
same,ISF Aβ levels for an additional 12 hours in the presence of TTX,"[2]; mouse, in vivo",remained low
same,"ISF Aβ levels, % of baseline by 17 hours from drug treatment","[2]; mouse, in vivo",58.5%
"C[C@]12C[C@H](O)[C@H]3[C@@H](CCC4=CC(=O)CC[C@@]43C)[C@@H]1CC[C@@H]2C(=O)CO [CORT, Corticosterone]",Effect on ISF Aβ levels versus vehicle treated mice,[2],no difference
same,Effect on ISF Aβ levels versus vehicle treated mice,[2]; listed as Corticosterone,did not alter
"CRF (SEEPPISLDLTFHLLREVLEMARAEQLAQQAHSNRKLMEII; ends and bridges not checked; UniProt P06850 154-194, looked up)","ISF Aβ levels, % of baseline by 12 hours",[2]; 100 nM by reverse microdialysis in hippocampus,138.3±7.027% and 138.3%
same,Time of increase of ISF Aβ levels after drug infusion,[2]; 100 nM in the microdialysis fluid,3 h
same,"ISF Aβ levels, % of baseline by 12 hours",[2]; 200 nM by reverse microdialysis in hippocampus,171.9±17.83% and 171.9%
same,Time of increase of ISF Aβ levels after drug infusion,[2]; 200 nM in the microdialysis fluid,immediately
same,Dose dependence of increase in ISF Aβ levels,[2]; 100 and 200 nM by reverse microdialysis,dose-dependent manner
